# In publication PMC10033419, “Blocking NS3–NS4B interaction inhibits dengue virus in non-human primates” (Nature, 2023):
# Test system: DENV-1/45AZ5
# Experiment: NHP DENV-1 study, serum viral RNA RT-qPCR
# Assay type: in vivo, rhesus macaques
# Details: for qRT-PCR Assay Average GE/mL: LOQ 100 GE/reaction
# Description: WRAIR is fully accredited by AAALAC International.
# Serum samples from macaques were checked for the presence of DENV-1 RNA. Viral RNA for RT–qPCR was extracted from 100–200 µl of serum using the QIAcube instrumentation and the QIAGEN Viral RNA extraction kits. The primers and fluorogenic probes used in the RT–qPCR assays have been previously described[63],[64]. DENV-1 RNA was detected in a 25 µl reaction containing 5 µl of extracted RNA sample, 10 pmol of dengue-specific primers and 5 pmol dengue probe in the reaction mixture from Superscript Ill Platinum One-Step Quantitative RT-PCR Kit (Invitrogen, Thermo Fisher Scientific), consisting of 0.5 µl Superscript III RT/Platinum mix, 12.5 µl 2× reaction mix and 0.05 µl ROX reference dye. The one-step RT–qPCR comprises a 30 min RT step at 50 °C and 2 min of Taq polymerase activation at 94 °C, followed by 40 cycles of PCR at 94 °C for 5 s and 53 °C for 35 s performed in an ABI 7500DX Fast Real Time PCR system. Each assay included positive, negative and non-template controls. The RNA copy number was calculated from a standard curve of tenfold serial dilutions made from RNA in vitro transcripts consisting of DENV-1 with known copy numbers. The LLOQ was 100 genomic copies per reaction.
# This sample size was sufficient to detect a significant difference in the number of infected animals in each of the groups as low as 83%. […] Sample processing and conducting of assays was performed by laboratory technicians not involved in the treatment/manipulation of the animals.
structure (smiles),measurement,setting,value
COc1cc(N[C@H](C(=O)c2c[nH]c3ccc(OC(F)(F)F)cc23)c2ccc(Cl)cc2OC)cc(S(C)(=O)=O)c1 [JNJ-1802],DENV RNA,6 mg per kg per day q.d.,remained undetectable during the complete study period
same,qRT-PCR Assay Result,"animal R7, Day 0",Negative
same,qRT-PCR Assay Average GE/mL,"animal R7, Day 0",0.00E+00 GE/mL
same,qRT-PCR Assay Result,"animal R7, Day 1",Negative
same,qRT-PCR Assay Average GE/mL,"animal R7, Day 1",0.00E+00 GE/mL
same,qRT-PCR Assay Result,"animal R7, Day 2",Negative
same,qRT-PCR Assay Average GE/mL,"animal R7, Day 2",0.00E+00 GE/mL
same,qRT-PCR Assay Result,"animal R7, Day 3",Negative
same,qRT-PCR Assay Average GE/mL,"animal R7, Day 3",0.00E+00 GE/mL
same,qRT-PCR Assay Result,"animal R7, Day 4",Negative
same,qRT-PCR Assay Average GE/mL,"animal R7, Day 4",0.00E+00 GE/mL
same,qRT-PCR Assay Result,"animal R7, Day 5",Negative
same,qRT-PCR Assay Average GE/mL,"animal R7, Day 5",0.00E+00 GE/mL
same,qRT-PCR Assay Result,"animal R7, Day 6",Negative
same,qRT-PCR Assay Average GE/mL,"animal R7, Day 6",0.00E+00 GE/mL
same,qRT-PCR Assay Result,"animal R7, Day 7",Negative
same,qRT-PCR Assay Average GE/mL,"animal R7, Day 7",0.00E+00 GE/mL
same,qRT-PCR Assay Result,"animal R7, Day 8",Negative
same,qRT-PCR Assay Average GE/mL,"animal R7, Day 8",0.00E+00 GE/mL
same,qRT-PCR Assay Result,"animal R7, Day 9",Negative
same,qRT-PCR Assay Average GE/mL,"animal R7, Day 9",0.00E+00 GE/mL
same,qRT-PCR Assay Result,"animal R7, Day 10",Negative
same,qRT-PCR Assay Average GE/mL,"animal R7, Day 10",0.00E+00 GE/mL
same,qRT-PCR Assay Result,"animal R7, Day 11",Negative
same,qRT-PCR Assay Average GE/mL,"animal R7, Day 11",0.00E+00 GE/mL
same,qRT-PCR Assay Result,"animal R7, Day 14",Negative
same,qRT-PCR Assay Average GE/mL,"animal R7, Day 14",0.00E+00 GE/mL
same,qRT-PCR Assay Result,"animal R7, Day 29",Negative
same,qRT-PCR Assay Average GE/mL,"animal R7, Day 29",0.00E+00 GE/mL
same,qRT-PCR Assay Result,"animal R8, Day 0",Negative
same,qRT-PCR Assay Average GE/mL,"animal R8, Day 0",0.00E+00 GE/mL
same,qRT-PCR Assay Result,"animal R8, Day 1",Negative
same,qRT-PCR Assay Average GE/mL,"animal R8, Day 1",0.00E+00 GE/mL
same,qRT-PCR Assay Result,"animal R8, Day 2",Negative
same,qRT-PCR Assay Average GE/mL,"animal R8, Day 2",0.00E+00 GE/mL
same,qRT-PCR Assay Result,"animal R8, Day 3",Negative
same,qRT-PCR Assay Average GE/mL,"animal R8, Day 3",0.00E+00 GE/mL
same,qRT-PCR Assay Result,"animal R8, Day 4",Negative
same,qRT-PCR Assay Average GE/mL,"animal R8, Day 4",0.00E+00 GE/mL
same,qRT-PCR Assay Result,"animal R8, Day 5",Negative
same,qRT-PCR Assay Average GE/mL,"animal R8, Day 5",0.00E+00 GE/mL
same,qRT-PCR Assay Result,"animal R8, Day 6",Negative
same,qRT-PCR Assay Average GE/mL,"animal R8, Day 6",0.00E+00 GE/mL
same,qRT-PCR Assay Result,"animal R8, Day 7",Negative
same,qRT-PCR Assay Average GE/mL,"animal R8, Day 7",0.00E+00 GE/mL
same,qRT-PCR Assay Result,"animal R8, Day 8",Negative
same,qRT-PCR Assay Average GE/mL,"animal R8, Day 8",0.00E+00 GE/mL
same,qRT-PCR Assay Result,"animal R8, Day 9",Negative
same,qRT-PCR Assay Average GE/mL,"animal R8, Day 9",0.00E+00 GE/mL
same,qRT-PCR Assay Result,"animal R8, Day 10",Negative
same,qRT-PCR Assay Average GE/mL,"animal R8, Day 10",0.00E+00 GE/mL
same,qRT-PCR Assay Result,"animal R8, Day 11",Negative
same,qRT-PCR Assay Average GE/mL,"animal R8, Day 11",0.00E+00 GE/mL
same,qRT-PCR Assay Result,"animal R8, Day 14",Negative
same,qRT-PCR Assay Average GE/mL,"animal R8, Day 14",0.00E+00 GE/mL
same,qRT-PCR Assay Result,"animal R8, Day 29",Negative
same,qRT-PCR Assay Average GE/mL,"animal R8, Day 29",0.00E+00 GE/mL
same,qRT-PCR Assay Result,"animal R9, Day 0",Negative
same,qRT-PCR Assay Average GE/mL,"animal R9, Day 0",0.00E+00 GE/mL
same,qRT-PCR Assay Result,"animal R9, Day 1",Negative
same,qRT-PCR Assay Average GE/mL,"animal R9, Day 1",0.00E+00 GE/mL
same,qRT-PCR Assay Result,"animal R9, Day 2",Negative
same,qRT-PCR Assay Average GE/mL,"animal R9, Day 2",0.00E+00 GE/mL
same,qRT-PCR Assay Result,"animal R9, Day 3",Negative
same,qRT-PCR Assay Average GE/mL,"animal R9, Day 3",0.00E+00 GE/mL
same,qRT-PCR Assay Result,"animal R9, Day 4",Negative
same,qRT-PCR Assay Average GE/mL,"animal R9, Day 4",0.00E+00 GE/mL
same,qRT-PCR Assay Result,"animal R9, Day 5",Negative
same,qRT-PCR Assay Average GE/mL,"animal R9, Day 5",0.00E+00 GE/mL
same,qRT-PCR Assay Result,"animal R9, Day 6",Negative
same,qRT-PCR Assay Average GE/mL,"animal R9, Day 6",0.00E+00 GE/mL
same,qRT-PCR Assay Result,"animal R9, Day 7",Negative
same,qRT-PCR Assay Average GE/mL,"animal R9, Day 7",0.00E+00 GE/mL
same,qRT-PCR Assay Result,"animal R9, Day 8",Negative
same,qRT-PCR Assay Average GE/mL,"animal R9, Day 8",0.00E+00 GE/mL
same,qRT-PCR Assay Result,"animal R9, Day 9",Negative
same,qRT-PCR Assay Average GE/mL,"animal R9, Day 9",0.00E+00 GE/mL
same,qRT-PCR Assay Result,"animal R9, Day 10",Negative
same,qRT-PCR Assay Average GE/mL,"animal R9, Day 10",0.00E+00 GE/mL
same,qRT-PCR Assay Result,"animal R9, Day 11",Negative
same,qRT-PCR Assay Average GE/mL,"animal R9, Day 11",0.00E+00 GE/mL
same,qRT-PCR Assay Result,"animal R9, Day 14",Negative
same,qRT-PCR Assay Average GE/mL,"animal R9, Day 14",0.00E+00 GE/mL
same,qRT-PCR Assay Result,"animal R9, Day 29",Negative
